According to ChEMBL document CHEMBL2203018, “Tyrosine urea muscarinic acetylcholine receptor antagonists: achiral quaternary ammonium groups” (Bioorg Med Chem Lett, 2012):

Columns and labels:
Mus musculus [1] = assay: Inhibition of methacholine-induced bronchoconstriction in Balb/c mouse at 5 ug administered intranasally after 24 hrs; type: functional
Mus musculus [2] = assay: Inhibition of methacholine-induced bronchoconstriction in Balb/c mouse at 5 ug administered intranasally after 48 hrs; type: functional
Mus musculus [3] = assay: Inhibition of methacholine-induced bronchoconstriction in Balb/c mouse at 5 ug administered intranasally after 5 hrs; type: functional
[4] = molecular target: T1, Muscarinic acetylcholine receptor M2 (Homo sapiens, UniProt P08172); assay: Antagonist activity at human muscarinic M2 receptor expressed in CHO cells assessed as inhibition of acetylcholine-induced calcium mobilization by FLIPR assay; type: functional, cell-based
T1 sequence (P08172 whole entry): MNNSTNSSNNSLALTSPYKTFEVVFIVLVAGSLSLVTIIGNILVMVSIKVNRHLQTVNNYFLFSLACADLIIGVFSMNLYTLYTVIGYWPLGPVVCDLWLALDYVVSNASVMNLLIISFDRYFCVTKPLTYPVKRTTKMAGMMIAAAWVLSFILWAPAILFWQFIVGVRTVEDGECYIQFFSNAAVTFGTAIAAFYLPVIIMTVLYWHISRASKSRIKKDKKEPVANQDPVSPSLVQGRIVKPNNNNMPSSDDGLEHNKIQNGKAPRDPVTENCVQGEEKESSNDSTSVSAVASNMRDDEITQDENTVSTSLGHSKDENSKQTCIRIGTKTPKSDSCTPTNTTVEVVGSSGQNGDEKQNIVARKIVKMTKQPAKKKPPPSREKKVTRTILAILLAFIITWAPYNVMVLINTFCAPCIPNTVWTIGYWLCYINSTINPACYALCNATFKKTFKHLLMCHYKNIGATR

[5] = molecular target: Muscarinic acetylcholine receptor M3 (Homo sapiens, UniProt P20309); assay: Antagonist activity at human muscarinic M3 receptor expressed in CHO cells assessed as inhibition of acetylcholine-induced calcium mobilization by FLIPR assay; type: functional, cell-based
Chain of Muscarinic acetylcholine receptor M3 (P20309 whole entry): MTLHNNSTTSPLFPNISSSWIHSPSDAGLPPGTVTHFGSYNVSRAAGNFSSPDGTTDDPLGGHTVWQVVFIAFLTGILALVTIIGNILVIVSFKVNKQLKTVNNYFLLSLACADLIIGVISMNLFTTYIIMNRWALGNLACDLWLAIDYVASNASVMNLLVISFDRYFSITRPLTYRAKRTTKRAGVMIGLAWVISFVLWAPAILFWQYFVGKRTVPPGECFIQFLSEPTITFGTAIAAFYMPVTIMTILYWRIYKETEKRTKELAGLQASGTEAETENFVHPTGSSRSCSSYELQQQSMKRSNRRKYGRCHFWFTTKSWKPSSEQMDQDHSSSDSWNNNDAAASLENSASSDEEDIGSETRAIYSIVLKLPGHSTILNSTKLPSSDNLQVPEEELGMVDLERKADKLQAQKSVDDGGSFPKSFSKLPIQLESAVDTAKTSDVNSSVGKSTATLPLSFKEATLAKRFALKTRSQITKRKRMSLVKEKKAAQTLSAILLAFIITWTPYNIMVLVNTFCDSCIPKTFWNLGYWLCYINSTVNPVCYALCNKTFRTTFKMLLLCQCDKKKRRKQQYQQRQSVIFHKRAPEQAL

[6] = molecular target: T2, Muscarinic acetylcholine receptor M1 (Homo sapiens, UniProt P11229); assay: Antagonist activity at human muscarinic M1 receptor expressed in CHO cells assessed as inhibition of acetylcholine-induced calcium mobilization by FLIPR assay; type: functional, cell-based
T2 sequence (P11229 whole entry): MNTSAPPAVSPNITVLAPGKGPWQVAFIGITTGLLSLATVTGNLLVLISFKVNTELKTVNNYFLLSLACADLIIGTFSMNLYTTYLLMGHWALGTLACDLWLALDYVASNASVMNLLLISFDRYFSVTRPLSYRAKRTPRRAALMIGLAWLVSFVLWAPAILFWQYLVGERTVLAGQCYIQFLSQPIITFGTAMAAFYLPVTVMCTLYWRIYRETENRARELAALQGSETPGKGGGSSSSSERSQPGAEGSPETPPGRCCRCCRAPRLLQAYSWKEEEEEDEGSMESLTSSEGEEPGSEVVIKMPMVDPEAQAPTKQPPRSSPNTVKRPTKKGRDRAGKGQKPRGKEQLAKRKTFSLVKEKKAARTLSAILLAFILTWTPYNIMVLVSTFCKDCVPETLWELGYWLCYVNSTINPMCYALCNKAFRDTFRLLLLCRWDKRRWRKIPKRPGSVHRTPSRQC

For `CC(C)OC(=O)c1ccc(NC(=O)N[C@@H](Cc2ccc(O)cc2)C(=O)N[C@H]2CCC[N+](C)(Cc3ccc(Cl)cc3)C2)cc1` (some centres undefined), the “inhibition (INH)” value (Mus musculus [1]) was 38%, the “inhibition (INH)” value (Mus musculus [2]) was 0% and the “inhibition (INH)” value (Mus musculus [3]) was 94%.
For `Cc1c[n+]2cc(CNC(=O)[C@H](Cc3ccc(O)cc3)NC(=O)Nc3ccc(C(=O)OC(C)C)cc3)n(Cc3ccc(C(F)(F)F)cc3)c2s1.O=C([O-])C(F)(F)F`, the “inhibition (INH)” value (Mus musculus [1]) was 12% and the “inhibition (INH)” value (Mus musculus [3]) was 89%.
Molecule `CC(C)OC(=O)c1ccc(NC(=O)N[C@@H](Cc2ccc(O)cc2)C(=O)NCCC[N+](C)(C)Cc2ccc(Cl)cc2)cc1` has an IC50 [4] of 178 nM, an IC50 [5] of 197 nM and an IC50 [6] of 757 nM.
Molecule `CC(C)OC(=O)c1ccc(NC(=O)N[C@@H](Cc2ccc(O)cc2)C(=O)NCC(C)(C)C[N+](C)(C)Cc2ccc(Cl)cc2)cc1` has an IC50 [4] of 87.6 nM, an IC50 [5] of under 5 nM and an IC50 [6] of 476 nM.
Molecule `CC(C)OC(=O)c1ccc(NC(=O)N[C@@H](Cc2ccc(O)cc2)C(=O)N2CC[N+](C)(Cc3ccc4c(c3)OCO4)CC2)cc1` has an IC50 [4] of 427 nM, an IC50 [5] of 10.2 nM and an IC50 [6] of over 3300 nM.
Molecule `CC(C)OC(=O)c1ccc(NC(=O)N[C@@H](Cc2ccc(O)cc2)C(=O)N2CC[N+](C)(CC3CCCCC3)CC2)cc1` has an IC50 [4] of 191 nM, an IC50 [5] of 50.2 nM and an IC50 [6] of 2500 nM.
In the case of `CC(C)OC(=O)c1ccc(NC(=O)N[C@@H](Cc2ccc(O)cc2)C(=O)N2CC[N+](Cc3ccc(Cl)cc3)(C(C)C)CC2)cc1`, the IC50 [4] is reported as 97.9 nM, the IC50 [5] is reported as 27.5 nM and the IC50 [6] is reported as 893 nM.
For `CC(C)OC(=O)c1ccc(NC(=O)N[C@@H](Cc2ccc(O)cc2)C(=O)N2CC[N+](Cc3ccc(Cl)cc3)(CC3CCCCC3)CC2)cc1`, the IC50 [4] was 58.8 nM, the IC50 [5] was under 5 nM and the IC50 [6] was 141 nM.
`CC(C)OC(=O)c1ccc(NC(=O)N[C@@H](Cc2ccc(O)cc2)C(=O)N2CC[N+](Cc3ccc(Cl)cc3)(CC3CCc4ccccc4C3)CC2)cc1` (some centres undefined) was tested, and the IC50 [4] was 41.2 nM, the IC50 [5] was under 5 nM and the IC50 [6] was 462 nM.
Molecule `CC(C)OC(=O)c1ccc(NC(=O)N[C@@H](Cc2ccc(O)cc2)C(=O)N2CC[N+](C)(CCc3ccccc3)CC2)cc1` has an IC50 [4] of 860 nM, an IC50 [5] of under 5 nM and an IC50 [6] of 1350 nM.
`CC(C)OC(=O)c1ccc(NC(=O)N[C@@H](Cc2ccc(O)cc2)C(=O)N(C)Cc2n(C)cc[n+]2C)cc1` gave an IC50 [4] of over 3300 nM, an IC50 [5] of over 3300 nM and an IC50 [6] of over 3300 nM.
With `CC(C)OC(=O)c1ccc(NC(=O)N[C@@H](Cc2ccc(O)cc2)C(=O)N(C)Cc2n(C)cc[n+]2Cc2ccc(Cl)cc2)cc1` the IC50 [4] was 999 nM, the IC50 [5] was 392 nM and the IC50 [6] was over 3300 nM.
With `CC(C)OC(=O)c1ccc(NC(=O)N[C@@H](Cc2ccc(O)cc2)C(=O)NCc2n(Cc3ccc(Cl)cc3)cc[n+]2Cc2ccc(Cl)cc2)cc1` the IC50 [4] was 181 nM, the IC50 [5] was 51.9 nM and the IC50 [6] was 327 nM.
Molecule `Cc1csc2n(C)c(CNC(=O)[C@H](Cc3ccc(O)cc3)NC(=O)Nc3ccc(C(=O)OC(C)C)cc3)c[n+]12` has an IC50 [4] of under 5 nM, an IC50 [5] of under 5 nM and an IC50 [6] of under 5 nM.
`Cc1csc2n(Cc3ccc(Cl)cc3)c(CNC(=O)[C@H](Cc3ccc(O)cc3)NC(=O)Nc3ccc(C(=O)OC(C)C)cc3)c[n+]12` showed an IC50 [4] of under 5 nM, an IC50 [5] of under 5 nM and an IC50 [6] of under 5 nM.
Molecule `Cc1c[n+]2cc(CNC(=O)[C@H](Cc3ccc(O)cc3)NC(=O)Nc3ccc(C(=O)OC(C)C)cc3)n(C)c2s1` has an IC50 [4] of under 5 nM, an IC50 [5] of under 5 nM and an IC50 [6] of under 5 nM.
`CC(C)OC(=O)c1ccc(NC(=O)N[C@@H](Cc2ccc(O)cc2)C(=O)N2CCC[C@H]([N+](C)(C)Cc3ccc(Cl)cc3)C2)cc1` was tested, and the IC50 [4] was 105 nM, the IC50 [5] was 45.3 nM and the IC50 [6] was 1120 nM.
In the case of `CC(C)OC(=O)c1ccc(NC(=O)N[C@@H](Cc2ccc(O)cc2)C(=O)N2CCC([N+]3(Cc4ccc(Cl)cc4)CCCC3)CC2)cc1`, the IC50 [4] is reported as 94.6 nM, the IC50 [5] is reported as 68.9 nM and the IC50 [6] is reported as 882 nM.
`CC[N+]1(C2CCN(C(=O)[C@H](Cc3ccc(O)cc3)NC(=O)Nc3ccc(C(=O)OC(C)C)cc3)CC2)CCCC1` showed an IC50 [4] of 556 nM, an IC50 [5] of 579 nM and an IC50 [6] of over 3300 nM.
`CC(C)OC(=O)c1ccc(NC(=O)N[C@@H](Cc2ccc(O)cc2)C(=O)NCC[N+](C)(Cc2ccc(Cl)cc2)Cc2ccc(Cl)cc2)cc1` gave an IC50 [4] of 405 nM, an IC50 [5] of 70.4 nM and an IC50 [6] of 379 nM.
Work on `CC(C)OC(=O)c1ccc(NC(=O)N[C@@H](Cc2ccc(O)cc2)C(=O)NCC[N+](C)(C)Cc2ccc(Cl)cc2)cc1` yielded an IC50 [4] of 549 nM, an IC50 [5] of 143 nM and an IC50 [6] of 1430 nM.
In the case of `CC[N+](CC)(CCNC(=O)[C@H](Cc1ccc(O)cc1)NC(=O)Nc1ccc(C(=O)OC(C)C)cc1)Cc1ccc(Cl)cc1`, the IC50 [4] is reported as 311 nM, the IC50 [5] is reported as 223 nM and the IC50 [6] is reported as 584 nM.
For `CC(C)OC(=O)c1ccc(NC(=O)N[C@@H](Cc2ccc(O)cc2)C(=O)NCC[N+](C)(Cc2ccc3ccccc3c2)Cc2ccc3ccccc3c2)cc1`, the IC50 [4] was 15 nM, the IC50 [5] was 82.2 nM and the IC50 [6] was 948 nM.
Molecule `CC(C)OC(=O)c1ccc(NC(=O)N[C@@H](Cc2ccc(O)cc2)C(=O)NCC[N+](C)(C)C23CC4CC(CC(C4)C2)C3)cc1` has an IC50 [4] of 13.1 nM, an IC50 [5] of 6.1 nM and an IC50 [6] of 13.1 nM.
For `CC(C)OC(=O)c1ccc(NC(=O)N[C@@H](Cc2ccc(O)cc2)C(=O)NCC[N+]2(Cc3ccc(Cl)cc3)CCCC2)cc1`, the IC50 [4] was 108 nM, the IC50 [5] was 44.9 nM and the IC50 [6] was 418 nM.
For `CC(C)OC(=O)c1ccc(NC(=O)N[C@@H](Cc2ccc(O)cc2)C(=O)NCC[N+]2(Cc3ccc(Cl)cc3)CCCCC2)cc1`, the IC50 [4] was 82.5 nM, the IC50 [5] was 33.4 nM and the IC50 [6] was 199 nM.
`CC(C)OC(=O)c1ccc(NC(=O)N[C@@H](Cc2ccc(O)cc2)C(=O)NCC[N+]2(C)CCCCCC2)cc1` gave an IC50 [4] of 328 nM, an IC50 [5] of 159 nM and an IC50 [6] of over 3300 nM.
In the case of `CC(C)OC(=O)c1ccc(NC(=O)N[C@@H](Cc2ccc(O)cc2)C(=O)NCC[N+](C)(C(C)C)C(C)C)cc1`, the IC50 [4] is reported as 337 nM, the IC50 [5] is reported as 237 nM and the IC50 [6] is reported as over 3300 nM.
With `CC(C)OC(=O)c1ccc(NC(=O)N[C@@H](Cc2ccc(O)cc2)C(=O)N(CC[N+](C)(C)C)Cc2ccccc2)cc1` the IC50 [4] was over 3300 nM, the IC50 [5] was over 3300 nM and the IC50 [6] was over 3300 nM.
Molecule `CC(C)OC(=O)c1ccc(NC(=O)N[C@@H](Cc2ccc(O)cc2)C(=O)NCCC[N+](C)(C)Cc2ccc3ccccc3c2)cc1` has an IC50 [4] of 411 nM, an IC50 [5] of 417 nM and an IC50 [6] of 734 nM.
For `CC(C)OC(=O)c1ccc(NC(=O)N[C@@H](Cc2ccc(O)cc2)C(=O)N2CCC[C@@H]([N+](C)(C)Cc3ccc(Cl)cc3)C2)cc1`, the IC50 [4] was 832 nM, the IC50 [5] was 13.3 nM and the IC50 [6] was 1900 nM.
In the case of `Cc1cn2cc(CNC(=O)[C@H](Cc3ccc(O)cc3)NC(=O)Nc3ccc(C(=O)OC(C)C)cc3)[n+](Cc3ccc4ccccc4c3)c2s1.O=C([O-])C(F)(F)F`, the “inhibition (INH)” value (Mus musculus [2]) is reported as 69% and the “inhibition (INH)” value (Mus musculus [3]) is reported as 78%.
